Our source for the IC50 values is ChEMBL document CHEMBL1140396, “Novel C2-C3' N-peptide linked macrocyclic taxoids. Part 1: Synthesis and biological activities of docetaxel analogues with a peptide side chain at C3'” (Bioorg Med Chem Lett, 2005).

What is called IC50 is the concentration that gives 50% inhibition. A high value points to weaker potency.

A short description of assay [1]: Concentration that inhibits the rate of cold-induced microtubule disassembly. It counts as functional.
Another assay concerns KB. Description: Concentration that inhibits cell proliferation (KB cell line) after 72 h of incubation. It counts as functional, cell-based. The settings on record: Homo sapiens.
Assay [2] can be described thus: Concentration that inhibits the rate of cold-induced microtubule disassembly; Inactive. It counts as functional.

On to `CC(=O)O[C@@]12COC1C[C@H](O)C1C(=O)[C@H](O)C3=C(C)[C@@H](OC(=O)[C@H](O)[C@@H](NC(=O)N[C@H](C(=O)N4CCC[C@H]4C(=O)OCc4ccccc4)C(C)C)c4ccccc4)C[C@@](O)([C@@H](OC(=O)c4ccccc4)C12)C3(C)C` (some centres undefined), for which the results for the IC50 (in assay [1]; in the assay with KB) were 0.5 µM and 0.05 µM, respectively.
For `CC(=O)O[C@@]12COC1C[C@H](O)C1C(=O)[C@H](O)C3=C(C)[C@@H](OC(=O)[C@H](O)[C@@H](NC(=O)N[C@H](C(=O)N4CCC[C@H]4C(=O)NCC(=O)OCc4ccccc4)C(C)C)c4ccccc4)C[C@@](O)([C@@H](OC(=O)c4ccccc4)C12)C3(C)C` (some centres undefined) the same measures were 0.4 µM and 0.1 µM.
For `CC(=O)O[C@@]12COC1C[C@H](O)C1C(=O)[C@H](O)C3=C(C)[C@@H](OC(=O)[C@H](O)[C@@H](NC(=O)N[C@H](C(=O)N4CCC[C@H]4C(=O)NCC(=O)O)C(C)C)c4ccccc4)C[C@@](O)([C@@H](OC(=O)c4ccccc4)C12)C3(C)C` (some centres undefined) the same measures were 0.6 µM and above 10 µM.
For `CC(=O)O[C@@]12COC1C[C@H](O)C1C(=O)[C@H](O)C3=C(C)[C@@H](OC(=O)[C@H](O)[C@@H](NC(=O)OC(C)(C)C)c4ccccc4)C[C@@](O)([C@@H](OC(=O)c4ccccc4)C12)C3(C)C` (some centres undefined) the same measures were 0.5 µM and 0.001 µM.
As to `COC(=O)[C@H](CCSC)NC(=O)[C@H](Cc1ccccc1)NC(=O)[C@@H](NC(=O)N[C@@H](c1ccccc1)[C@@H](O)C(=O)O[C@H]1C[C@@]2(O)[C@@H](OC(=O)c3ccccc3)C3C(C(=O)[C@H](O)C(=C1C)C2(C)C)[C@@H](O)CC1OC[C@]13OC(C)=O)C(C)C` (some centres undefined), the IC50 in assay [1] was determined as 2.6 µM; with KB it was 1.1 µM.
For `CC(=O)O[C@@]12COC1C[C@H](O)C1C(=O)[C@H](O)C3=C(C)[C@@H](OC(=O)[C@H](O)[C@@H](NC(=O)N[C@H](C(=O)O)C(C)C)c4ccccc4)C[C@@](O)([C@@H](OC(=O)c4ccccc4)C12)C3(C)C` (some centres undefined) the same measures were 0.8 µM and 0.67 µM.
Regarding `CC(=O)O[C@@]12COC1C[C@H](O)C1C(=O)[C@H](O)C3=C(C)[C@@H](OC(=O)[C@H](O)[C@@H](NC(=O)NCC(=O)N[C@@H](COCc4ccccc4)C(=O)N[C@@H](Cc4ccc(OCc5ccccc5)cc4)C(=O)OCc4ccccc4)c4ccccc4)C[C@@](O)([C@@H](OC(=O)c4ccccc4)C12)C3(C)C` (some centres undefined), the IC50 entry in assay [2] was “Not Active”; with KB, 0.09 µM.
`CC(=O)O[C@@]12COC1C[C@H](O)C1C(=O)[C@H](O)C3=C(C)[C@@H](OC(=O)[C@H](O)[C@@H](NC(=O)NCC(=O)N[C@@H](CO)C(=O)N[C@@H](Cc4ccc(O)cc4)C(=O)O)c4ccccc4)C[C@@](O)([C@@H](OC(=O)c4ccccc4)C12)C3(C)C` (some centres undefined): the IC50 in assay [1] was 1 µM; in the assay with KB it was 1.05 µM.
For `CC(=O)O[C@@]12COC1C[C@H](O)C1C(=O)[C@H](O)C3=C(C)[C@@H](OC(=O)[C@H](O)[C@@H](NC(=O)N[C@H](C(=O)N4CCC[C@H]4C(=O)O)C(C)C)c4ccccc4)C[C@@](O)([C@@H](OC(=O)c4ccccc4)C12)C3(C)C` (some centres undefined) the same measures were 1.7 µM and 4.5 µM.
Regarding `CC(=O)O[C@@]12COC1C[C@H](O)C1C(=O)[C@H](O)C3=C(C)[C@@H](OC(=O)[C@H](O)[C@@H](NC(=O)N[C@H](C(=O)N4CCC[C@H]4C(=O)NCC(=O)NCC(=O)OCc4ccccc4)C(C)C)c4ccccc4)C[C@@](O)([C@@H](OC(=O)c4ccccc4)C12)C3(C)C` (some centres undefined), the half-maximal inhibitory concentration (IC50) in assay [1] was determined as 0.3 µM; with KB, 4 µM.
With `CC(=O)O[C@@]12COC1C[C@H](O)C1C(=O)[C@H](O)C3=C(C)[C@@H](OC(=O)[C@H](O)[C@@H](NC(=O)N[C@H](C(=O)OCc4ccccc4)C(C)C)c4ccccc4)C[C@@](O)([C@@H](OC(=O)c4ccccc4)C12)C3(C)C` (some centres undefined), the IC50 in assay [1] worked out at 0.8 µM; in the assay on KB, 0.004 µM.
For `CC(=O)O[C@@]12COC1C[C@H](O)C1C(=O)[C@H](O)C3=C(C)[C@@H](OC(=O)[C@H](O)[C@@H](NC(=O)N[C@H](C(=O)N4CCC[C@H]4C(=O)NCC(=O)NCC(=O)O)C(C)C)c4ccccc4)C[C@@](O)([C@@H](OC(=O)c4ccccc4)C12)C3(C)C` (some centres undefined), in that order: 0.5 µM and above 10 µM.
